Experiment [1] relates to GLP-1R T149^1.44M. The following applies: cited from earlier work. From the text: (§1) Previous in vivo characterizations of missense variants in the GLP-1R and GIPR have pointed to associations between receptor impairments and clinical phenotypes. One example is the more frequently occurring variant of GIPR E354^6.53Q (gnomAD MAF: 0.2). […] Heterozygous carriers of the rare missense variant T14 ...

The subject of experiment [2] is GLP-1R G168^1.63S. Conditions: cited from earlier work.
From the text: as §1

Experiment [3] has as its system GLP-1R variants P7^ECDL, R44^ECDH and L260^ICL2P. Conditions: cited from earlier work.
From the text: as §1

Experiment [4] relates to patients with type 2 diabetes, GLP-1R G168^1.63S carriers. Conditions: cited from earlier work.
From the text: as §1

In experiment [5] the target is human glucagon receptor missense variant R225^3.30H (human) (UniProt P47871).
UniProt P47871, sequence (P47871 other isoform, or with tags, fused parts or gaps mutant): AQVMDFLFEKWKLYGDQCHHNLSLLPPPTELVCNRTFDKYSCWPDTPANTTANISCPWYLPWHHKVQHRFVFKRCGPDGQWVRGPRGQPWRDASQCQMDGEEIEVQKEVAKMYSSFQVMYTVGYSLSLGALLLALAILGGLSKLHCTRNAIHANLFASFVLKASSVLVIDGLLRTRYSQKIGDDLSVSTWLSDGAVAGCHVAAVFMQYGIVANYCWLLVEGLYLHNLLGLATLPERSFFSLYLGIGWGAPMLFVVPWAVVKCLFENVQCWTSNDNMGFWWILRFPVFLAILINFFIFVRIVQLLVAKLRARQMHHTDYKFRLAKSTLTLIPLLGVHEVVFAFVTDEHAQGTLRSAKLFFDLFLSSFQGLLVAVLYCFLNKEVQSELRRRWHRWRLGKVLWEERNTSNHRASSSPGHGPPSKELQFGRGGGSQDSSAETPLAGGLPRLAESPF

As for glucagon-like peptide-1 [GLP-1], in experiment [1], the “binding capacity of GLP-1” value is “lower binding capacity” and the receptor signaling result is listed as “impaired receptor signaling capabilities”. In addition, the “receptor signaling and binding affinity of GLP-1” value in experiment [2] is “preserved receptor signaling and binding affinity”. Moreover, the “GLP-1 binding and receptor signaling” value in experiment [3] was “wildtype-like GLP-1 binding and receptor signaling”.
On to “liraglutide: treatment with liraglutide of patients with type 2 diabetes (HAEGTFTSDVSSYLEGQAAKEFIAWLVRGRG; chains of the INN, looked up)”, for which, in experiment [4], the “weight loss and fat mass” value was “improved weight loss and lower fat mass”.
“β-arrestin-2 (Rluc8-Arr3-Sp2) (from UniProt P32121 1-409) (natural protein)”: the potency (EC50) of glucagon in β-arrestin-2 recruitment, BRET in HEK293, fold decrease against wildtype in experiment [5] stood at 6 fold.

Values taken from publication PMC8829087 (The Journal of Biological Chemistry, 2021).
